Measured values: ChEMBL document CHEMBL1157971, “Euphoportlandols A and B, tetracylic diterpene polyesters from Euphorbia portlandica and their anti-MDR effects in cancer cells” (J Nat Prod, 2006)

Key:
Assay type in all cases: cell-based
[1] = target: T1, ATP-dependent translocase ABCB1 (Homo sapiens, UniProt P08183); test: Inhibition of human MDR1-mediated rhodamine efflux in mouse L5178 cells assessed as fluorescence activity ratio at 4 ug/mL by flow cytometry relative to untreated control
[2] = target: T1, ATP-dependent translocase ABCB1; test: Inhibition of human MDR1-mediated rhodamine efflux in mouse L5178 cells assessed as mean fluorescence intensity at 40 ug/mL by flow cytometry
[3] = target: T1, ATP-dependent translocase ABCB1; test: Inhibition of human MDR1-mediated rhodamine efflux in mouse L5178 cells assessed as fluorescence activity ratio at 40 ug/mL by flow cytometry relative to untreated control
[4] = target: T1, ATP-dependent translocase ABCB1; test: Inhibition of human MDR1-mediated rhodamine efflux in mouse L5178 cells assessed as mean fluorescence intensity at 4 ug/mL by flow cytometry

T1 sequence (P08183 whole entry): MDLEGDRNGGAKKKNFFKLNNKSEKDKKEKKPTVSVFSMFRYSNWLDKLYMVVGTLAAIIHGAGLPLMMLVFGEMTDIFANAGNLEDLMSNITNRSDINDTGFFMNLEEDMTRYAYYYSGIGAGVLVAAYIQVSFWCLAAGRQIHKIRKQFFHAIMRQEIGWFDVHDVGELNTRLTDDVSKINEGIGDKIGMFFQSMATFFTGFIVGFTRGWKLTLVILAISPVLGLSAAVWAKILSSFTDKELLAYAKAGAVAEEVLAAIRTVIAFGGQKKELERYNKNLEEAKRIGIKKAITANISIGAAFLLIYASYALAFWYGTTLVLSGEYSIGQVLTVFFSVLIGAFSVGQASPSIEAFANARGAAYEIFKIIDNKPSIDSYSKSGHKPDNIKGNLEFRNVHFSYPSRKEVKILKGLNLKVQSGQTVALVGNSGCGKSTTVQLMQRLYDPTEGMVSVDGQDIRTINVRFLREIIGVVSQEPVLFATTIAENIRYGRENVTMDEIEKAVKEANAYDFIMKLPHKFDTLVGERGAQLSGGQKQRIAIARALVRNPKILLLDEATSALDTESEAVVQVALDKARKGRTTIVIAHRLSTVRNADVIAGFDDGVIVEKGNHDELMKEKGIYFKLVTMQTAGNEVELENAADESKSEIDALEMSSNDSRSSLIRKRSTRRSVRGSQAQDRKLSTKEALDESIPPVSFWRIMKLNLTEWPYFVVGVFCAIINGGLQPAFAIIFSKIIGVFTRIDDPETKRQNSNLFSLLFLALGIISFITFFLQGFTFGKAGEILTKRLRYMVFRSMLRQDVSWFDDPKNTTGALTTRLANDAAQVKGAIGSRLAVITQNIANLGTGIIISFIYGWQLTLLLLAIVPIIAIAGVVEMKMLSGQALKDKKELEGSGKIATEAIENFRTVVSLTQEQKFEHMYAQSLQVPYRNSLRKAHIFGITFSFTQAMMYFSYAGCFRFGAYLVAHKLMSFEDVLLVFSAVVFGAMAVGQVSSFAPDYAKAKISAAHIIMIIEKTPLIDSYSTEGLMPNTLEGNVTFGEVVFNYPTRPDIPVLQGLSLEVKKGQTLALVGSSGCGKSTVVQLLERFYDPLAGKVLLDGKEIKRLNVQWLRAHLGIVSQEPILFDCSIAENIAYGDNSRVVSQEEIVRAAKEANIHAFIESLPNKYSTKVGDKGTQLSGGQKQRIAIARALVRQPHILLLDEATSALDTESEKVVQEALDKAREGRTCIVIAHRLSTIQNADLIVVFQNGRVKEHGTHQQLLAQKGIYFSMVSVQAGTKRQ

**Q.** What does the source list for CC(=O)OC1[C@@]2(C)[C@@H]3[C@@H](C[C@]1(O)[C@H](OC(C)=O)[C@H]1[C@@H](OC(=O)c4ccccc4)[C@@H](C)C[C@]1(O)[C@@H]2OC(C)=O)C(=O)C(C)(C)[C@H]3OC(C)=O (stereo partly drawn) [EUPHOPORTLANDOL B]?
**A.** Ratio [1]: 1.4; Flu intensity [2]: 670.5; Ratio [3]: 30.7; Flu intensity [4]: 30.8

**Q.** For CC(=O)OC1[C@]2(O)CC3=C([C@H](OC(C)=O)C(C)(C)C3=O)[C@@]1(C)[C@@H](OC(C)=O)[C@@]1(O)C[C@H](C)[C@H](OC(=O)c3ccccc3)[C@@H]1[C@H]2OC(C)=O (stereo partly drawn) [EUPHOPORTLANDOL A], which Ratio [1] is on record?
**A.** 2.3

**Q.** And the Flu intensity [2]?
**A.** 880.2

**Q.** What about the Ratio [3] of the same molecule?
**A.** 40.3

**Q.** And the Flu intensity [4]?
**A.** 49.8
